SMILES strings stand for the structures. Where only a bound is given, the exact number is not on record here.

The assay deals with erythropoietin. In words: In vitro erythropoietin induction (ELISA of cell culture supernatant). The note with it: Homo sapiens, Hep3B, 16 h, read-out: EPO fold induction, Hep3B cell line, 200 uM, 16 hours, relative to vehicle control. In general terms: In an ELISA, binding on a coated surface is turned into a signal by an enzyme label.
Experimental: Hep3B cell line (ATCC HB8064) was employed. Induction of erythropoietin was carried out for the indicated dose of compounds for 16 hours duration. At the end of 16 hours, cell culture medium was collected and centrifuged to remove any debris. Supernatant obtained was analyzed for erythropoietin by ELISA (R&D systems, USA). The results were expressed as fold induction as compared to vehicle control.
Consider `CCCCc1ccc(C(=O)N2CCc3c(sc4nc(O)c(C(=O)NCC(=O)O)c(=O)n34)C2)cc1` [Compound 21, {[7-(4-Butyl-benzoyl)-2-hydroxy-4-oxo-5,6,7,8-tetrahydro-4H-9-thia-1,4a,7-triaza-fluorene-3-carbonyl]-amino}-acetic acid], for which the fold induction at 200 µM fell in the range of 9 to 16.
As for `CC1(C)CCc2c(sc3nc(O)c(C(=O)N[C@H](C(=O)O)c4ccccc4)c(=O)n23)C1` [Compound 55, [(2-Hydroxy-7,7-dimethyl-4-oxo-5,6,7,8-tetrahydro-4H-9-thia-1,4a-diaza-fluorene-3-carbonyl)-amino]-phenyl-acetic acid, L-isomer], the figure is less than 2.
Next, `O=C(O)CNC(=O)c1c(O)nc2sc3c(n2c1=O)CCN(C(=O)c1ccc(F)cc1)C3` [Compound 16, {[7-(4-Fluoro-benzoyl)-2-hydroxy-4-oxo-5,6,7,8-tetrahydro-4H-9-thia-1,4a,7-triaza-fluorene-3-carbonyl]-amino}-acetic acid]: 5 to 8; `O=C(O)CNC(=O)c1c(O)nc2sc3c(n2c1=O)CCC(c1ccccc1)C3` (stereo not drawn) [Compound 64, [(2-Hydroxy-4-oxo-7-phenyl-5,6,7,8-tetrahydro-4H-9-thia-1,4a-diaza-fluorene-3-carbonyl)-amino]-acetic acid]: less than 2; `O=C(O)CNC(=O)c1c(O)nc2sc3c(n2c1=O)CCOC3` [Compound 65, [(2-Hydroxy-4-oxo-5,8-dihydro-4H,6H-7-oxa-9-thia-1,4a-diaza-fluorene-3-carbonyl)-amino]-acetic acid]: 5 to 8.
As for `O=C(O)CNC(=O)c1c(O)nc2sc3c(n2c1=O)CCC(NC(=O)c1ccccc1)C3` (stereo not drawn) [Compound 56, [(7-Benzoylamino-2-hydroxy-4-oxo-5,6,7,8-tetrahydro-4H-9-thia-1,4a-diaza-fluorene-3-carbonyl)-amino]-acetic acid], the figure is less than 2; as for `CC(C)(C)C1CCc2c(sc3nc(O)c(C(=O)NCC(=O)O)c(=O)n23)C1` (stereo not drawn) [Compound 13, [(7-tert-Butyl-2-hydroxy-4-oxo-5,6,7,8-tetrahydro-4H-9-thia-1,4a-diaza-fluorene-3-carbonyl)-amino]-acetic acid], less than 2.
In the case of `CC(C)S(=O)(=O)N1CCc2c(sc3nc(O)c(C(=O)NCC(=O)O)c(=O)n23)C1` [Compound 5, {[2-Hydroxy-4-oxo-7-(propane-2-sulfonyl)-5,6,7,8-tetrahydro-4H-9-thia-1,4a,7-triaza-fluorene-3-carbonyl]-amino}-acetic acid], the fold induction at 200 µM was in the range of 2 to 4.
Take `O=C(NC1(C(=O)O)CCCC1)c1c(O)nc2sc3c(n2c1=O)CCCC3` [Compound 6, 1-[(2-Hydroxy-4-oxo-5,6,7,8-tetrahydro-4H-9-thia-1,4a-diaza-fluorene-3-carbonyl)-amino]-cyclopentanecarboxylic acid]: the fold induction at 200 µM is less than 2.
On to `CN(CC(=O)O)C(=O)c1c(O)nc2sc3c(n2c1=O)CCC(C)(C)C3` [Compound 61, [(2-Hydroxy-7,7-dimethyl-4-oxo-5,6,7,8-tetrahydro-4H-9-thia-1,4a-diaza-fluorene-3-carbonyl)-methyl-amino] -acetic acid], for which the fold induction at 200 µM is less than 2.
With `COc1ccc(C(=O)N2CCc3c(sc4nc(O)c(C(=O)NCC(=O)O)c(=O)n34)C2)cc1Cl` [Compound 37, {[7-(3-Chloro-4-methoxy-benzoyl)-2-hydroxy-4-oxo-5,6,7,8-tetrahydro-4H-9-thia-1,4a,7-triaza-fluorene-3-carbonyl]-amino}-acetic acid], the fold induction at 200 µM fell in the range of 5 to 8.
Regarding `O=C(O)CCNC(=O)c1c(O)nc2sc3c(n2c1=O)CCCCC3` [Compound 30, 3-[(2-Hydroxy-4-oxo-6,7,8,9-tetrahydro-4H,5H-10-thia-1,4a-diaza-benzo[a]azulene-3-carbonyl)-amino]-propionic acid], the fold induction at 200 µM is less than 2.

The values above are taken from patent publication EP2385948B1, “FUSED THIAZOLO AND OXAZOLO PYRIMIDINONES” (Torrent Pharmaceuticals Limited, priority 2009, dated 2011).
